These are literature values, as cited in patent US20050287205A1, “Dietary supplement compositions” (priority 2004, published 2005).

Data set [1] concerns renin. To be noted: spontaneously hypertensive rats.
Data set [2] concerns liver and skeletal muscle glycogen. To be noted: acetic acid administration to mammals; promotes recovery from fatigue.
The conditions of data set [3]: with water, ethyl alcohol, and diethyl ether.
Data set [4] concerns spontaneously hypertensive rats.

Regarding `CC(=O)O` [acetic acid], the renin activity result in data set [1] is on record as “significantly reduces”. In addition, in data set [2], the “glycogen repletion in liver and skeletal muscle” value is “enhances glycogen repletion in liver and skeletal muscle”. In data set [3], the miscibility entry is given as “miscible (mixable) in all proportions”. Moreover, the blood pressure entry in data set [4] was “significantly reduces”.
